Counter-ions that a name gives are not always drawn. Like-named read-outs stand apart in the source and are kept apart here.
Key:
[1] = test system: IL-2 production in Jurkat human T lymphocyte cells; experiment: IL-2 production assay for activity of compounds incubated with human serum; details: for IC50: IL-2 production in Jurkat cells after incubation with pooled human serum for 48 hours at 37° C.; for Conversion (%): percent of the IC50 value produced by triptolide (PG490) in the same experiment, human serum 48 hours
Experimental: Several compounds of formula I were analyzed for their capacity to inhibit IL-2 production in Jurkat human T lymphocyte cells, after incubation with pooled human serum for 48 hours at 37° C. (see Example 20). An ester prodrug, triptolide-14-succinate, designated PG490-88, was included for comparison.
The IC50 values (column 1) are calculated directly from the data in each experiment. The % conversion values (column 2) are calculated as the percent of the IC50 value produced by triptolide, designated PG490, incubated in the same plasma (i.e. in the same experiment).
A. IL-2 production assay for activity of compounds incubated with human serum. Test samples were diluted to 1 mM in complete tissue culture medium. […] Cells from an exponentially expanding culture of the Jurkat human T lymphocyte cell line (#TIB-152 obtained from American Type Culture Collection, Manassas, Va.) were harvested, washed once by centrifugation and dilution in complete tissue culture medium, and diluted to a concentration of 2×10^6 cells/ml. A volume of 50 μl of Jurkat cells (1×10^5 cells) was added to wells containing 100 μl of the diluted compounds, 50 μl of PMA (10 ng/ml) was added to each well, and the plates were incubated at 37° C. in a 5% CO2 incubator. After 24 hours, the plates were centrifuged to pellet the cells, 150 μl of supernatant was removed from each well, and the samples were stored at −20° C. The stored supernatants were analyzed for human IL-2 concentration using the Luminex 100 (Luminex Corporation, Austin, Tex.), Luminex microspheres coupled with anti-IL-2 capture antibody, and fluorochrome-coupled anti-IL-2 detection antibody. The data were expressed as ng/ml of IL-2.
(§1) B. Comparison of bioactivities after incubation of compounds in human serum. The data were plotted as the concentration of compound incubated in serum versus IL-2 concentration. The concentration of compound inducing a 50% decrease in the IL-2 concentration (IC50) was calculated from these dose response curves. […] This percentage conversion was used to compare the bioactivity of various compounds after incubation in human serum.

in vitro = details: for half-life: human, plasma; for max. conversion at 48 hr in human plasma by HPLC: incomplete conversion to triptolide, 48 hr incubation
Experimental: (§2) Compounds of formula I, as shown in Table 1 above and in the Examples, were assayed for their capacity to induce apoptosis in cells from the Jurkat human T lymphocyte cell line, after incubation with pooled human serum for varying periods of time at 37° C. (see Example 19). An ester prodrug, triptolide-14-succinate, designated PG490-88, was included for comparison. The extent of conversion to triptolide after such incubation was also independently determined by HPLC analysis.
Prodrug conversions to triptolide as determined independently by HPLC are given in […].

[2] = test system: Jurkat human T lymphocyte cell line; experiment: Apoptosis assay (Annexin V) of compounds incubated with human serum
Experimental: as §2
The ED50 values (column 3) are calculated directly from the data in each experiment, and the % conversion values (column 4) are calculated as percent of the ED50 value produced by triptolide, designated PG490, incubated in the same plasma (i.e. in the same experiment).
A. Incubation of compounds with human serum. Pooled human serum was stored in aliquots at −80° C. Test compounds were added at 20 mM to thawed human serum in 1.5 ml microfuge tubes and incubated at 37° C. in a water bath for varying periods of time. The test samples were placed on ice until dilution for the bioassay. Controls consisted of the compounds incubated in complete tissue culture medium (RPMI 1640 medium plus 5% heat-inactivated fetal calf serum, 1% HEPES, 1% pen/strep, 1% glutamine) rather than human serum.
B. Apoptosis assay of compounds incubated with human serum. Test samples were diluted to 1 mM in complete tissue culture medium. Aliquots were placed in microculture plates and serial dilutions were prepared so that the final concentration would encompass the range of 1 to 10,000 nM with half-log increments. Cells from an exponentially expanding culture of the Jurkat human T lymphocyte cell line (#TIB-152 obtained from American Type Culture Collection, Manassas, Va.) were harvested, washed once by centrifugation and dilution in complete tissue culture medium, and diluted to a concentration of 1×10^6 cells/ml. A volume of 100 μl of Jurkat cells (1×10^5 cells) was added to wells containing 100 μl of the diluted compounds, and the plates were incubated at 37° C. in a 5% CO2 incubator. After 24 hours, the plates were centrifuged to pellet the cells, and the cells were washed twice with 2% heat-inactivated fetal calf serum in PBS. To each well, 500 ul of binding buffer was added according to the Annexin V assay procedure (BioVision, Inc., Mountain View, Calif.). Next, 5 μl of the fluorescein isothiocyanate (FITC) conjugate of Annexin V (BioVision, Inc.) was added to each well, followed by 5 minutes of incubation in the dark. In some assays, propidium iodide (BioVision, Inc.) was added at this stage to check for necrotic cells. The contents of the wells were individually transferred into test tubes, and apoptosis was analyzed using a FACSCalibur flow cytometer (BD Immunocytometry Systems, San Jose, Calif.). Cells positive for Annexin V binding were considered to be apoptotic, and the data were calculated as percent apoptotic cells.
as §1, with “C.” for “B.”, “percent apoptotic cells.” for “IL-2 concentration.”, “inducing” for “inducing a”, “apoptosis (ED50)” for “decrease in the IL-2 concentration (IC50)”

[3] = Homo sapiens, Jurkat, 48 h, read-out: ED50 (nM) in apoptosis assay after incubation with serum, incubation time in human serum 48 hours, 37° C.
[4] = incubation time in human serum 48 hours
[5] = incubation time in human serum 1 hour

| SMILES | IC50 ([1]; Homo sapiens, Jurkat, 48 h) [nM] | Conversion (%) [1] [%] | half-life (in vitro) [min] | EC50 [2, 3] [nM] | Conversion, as relative ED50 compared to triptolide (%) [2, 4] [%] | IC50 [1] [nM] | EC50 ([2]; Homo sapiens, Jurkat, 1 h, read-out: ED50 (nM) in apoptosis assay after incubation with serum, incubation time in human serum 1 hour, 37° C.) [nM] | Conversion, as relative ED50 compared to triptolide (%) [2, 5] [%] | EC50 ([2]; Homo sapiens, Jurkat, 0.5 h, read-out: ED50 (nM) in apoptosis assay after incubation with serum, incubation time in human serum 0.5 hours, 37° C.) [nM] | Conversion, as relative ED50 compared to triptolide (%) ([2]; incubation time in human serum 0.5 hours) | max. conversion at 48 hr in human plasma by HPLC (in vitro) | EC50 ([2]; read-out: ED50 (nM) in apoptosis assay after incubation with serum, incubation time in human serum 1 hour, 37° C.) [nM] |
| --- | --- | --- | --- | --- | --- | --- | --- | --- | --- | --- | --- | --- |
| CC(C)[C@]12O[C@H]1[C@@H]1O[C@]13[C@]1(O[C@H]1C[C@H]1C4=C(CC[C@@]13C)C(=O)OC4)[C@@H]2OC(=O)Oc1ccccc1 [PG676, Triptolide 14-Phenyl Carbonate] | 6 | 84 | 15 | 56 | 96 |  |  |  |  |  |  |  |
| CC(C)[C@]12O[C@H]1[C@@H]1O[C@]13[C@]1(O[C@H]1C[C@H]1C4=C(CC[C@@]13C)C(=O)OC4)[C@@H]2OC(=O)OCCN(C)C [PG682, Triptolide 14-Dimethylaminoethyl Carbonate] |  | 78 | 17 | 32 | 146 | 23 | 66 | 76 |  |  |  |  |
| CCOCCOC(=O)O[C@@H]1[C@@]2(C(C)C)O[C@H]2[C@@H]2O[C@]23[C@]12O[C@H]2C[C@H]1C2=C(CC[C@@]13C)C(=O)OC2 [PG679, Triptolide 14-Ethoxyethyl Carbonate] | 12 | 11 | 11 |  |  |  |  |  | 39 | 128 |  |  |
| CC(C)[C@]12O[C@H]1[C@@H]1O[C@]13[C@]1(O[C@H]1C[C@H]1C4=C(CC[C@@]13C)C(=O)OC4)[C@@H]2OC(=O)OCC(=O)O [PG687tris, Tris(hydroxymethyl)aminomethane Salt of Triptolide 14-Hydroxycarbonyl-methyl Carbonate] | 29 | 6 |  | 960 | 6 |  |  |  |  |  | max. 10% at |  |
| COC(=O)COC(=O)O[C@@H]1[C@@]2(C(C)C)O[C@H]2[C@@H]2O[C@]23[C@]12O[C@H]2C[C@H]1C2=C(CC[C@@]13C)C(=O)OC2 [PG680, Triptolide 14-Methoxycarbonylmethyl Carbonate] | 3 | 44 | 9 | 58 | 85 |  |  |  |  |  |  |  |
| CC(C)[C@]12O[C@H]1[C@@H]1O[C@]13[C@]1(O[C@H]1C[C@H]1C4=C(CC[C@@]13C)C(=O)OC4)[C@@H]2OC(=O)OCCN(C)C.Cc1ccc(S(=O)(=O)O)cc1 [PG682PTSA, p-Toluenesulfonate Salt of Triptolide 14-Dimethylaminoethyl Carbonate] |  | 97 | 17 |  |  | 2 |  | 89 |  |  |  | 57 |
| CC(C)[C@]12O[C@H]1[C@@H]1O[C@]13[C@]1(O[C@H]1C[C@H]1C4=C(CC[C@@]13C)C(=O)OC4)[C@@H]2OC(=O)OCC(=O)O [PG687, Triptolide 14-Hydroxycarbonylmethyl Carbonate] | 61 | 2 |  |  | 6 |  |  |  |  |  | 10% |  |

Reference: US20110076293A1, “TRIPTOLIDE DERIVATIVES FOR MODULATION OF APOPTOSIS AND IMMUNOSUPPRESSION” (priority 2002, published 2011)
